Test results: patent US20260053834A1, “COVALENT MODIFIERS OF AKT1 AND USES THEREOF” (Terremoto Biosciences, Inc., priority 2023, published 2026)
Read-outs that look alike come from different tables or passages of the source.

Key:
AKT1 WT = molecular target: T1, AKT1 WT (Homo sapiens, UniProt P31749); test: Live cell target engagement by NanoBRET competitive probe displacement, AKT1 WT; type: binding; settings: transfected HEK293 cells, 2 h at 37° C., read-out: AKT1 WT IC50: GeoMean IC50
T1 construct: expressed in transfected cells; host or cells: HEK293
T1 sequence (P31749 whole entry): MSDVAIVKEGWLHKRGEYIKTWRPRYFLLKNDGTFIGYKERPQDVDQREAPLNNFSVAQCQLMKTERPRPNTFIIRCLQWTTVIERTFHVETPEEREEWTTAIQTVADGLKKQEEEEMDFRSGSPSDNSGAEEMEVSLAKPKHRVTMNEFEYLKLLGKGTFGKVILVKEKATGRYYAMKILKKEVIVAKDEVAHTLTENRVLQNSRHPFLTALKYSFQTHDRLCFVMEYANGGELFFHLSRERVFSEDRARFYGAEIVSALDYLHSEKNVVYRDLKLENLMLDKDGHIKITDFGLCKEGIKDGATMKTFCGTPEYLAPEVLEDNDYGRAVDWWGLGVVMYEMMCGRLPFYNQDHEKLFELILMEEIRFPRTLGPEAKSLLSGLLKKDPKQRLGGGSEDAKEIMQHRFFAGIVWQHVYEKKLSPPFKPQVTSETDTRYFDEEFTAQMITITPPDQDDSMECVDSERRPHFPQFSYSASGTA
Protocol: (§1) Determining live cell AKT1 E17K, AKT1 WT, and AKT2 target engagement by NanoBRET competitive probe displacement. Live cell target engagement assays were performed as described (Vasta, J. D. et al. Cell Chem Biol 2018, 25(11), 206-214). Briefly, HEK293 cells were transfected with plasmids encoding kinase-NanoLuciferase fusion proteins overnight. Cells were then treated with serial dilutions of compound and an ˜EC50 concentration of fluorescently-tagged ATP-competitive tracer (Promega). After incubation for 2 h at 37° C., luciferase substrate and extracellular luciferase inhibitor were added to all wells, and luminescent intensity at 460 nm and 600 nm were measured on a multimode plate-reader. The ratio of E600/E460 was calculated to give the tracer engagement signal (BRET). IC50 values were calculated by fitting BRET values to a log(inhibitor) vs. response Hill equation.

AKT2 = molecular target: T2, AKT2 (Homo sapiens, UniProt P31751); test: Live cell target engagement by NanoBRET competitive probe displacement, AKT2; type: binding; settings: transfected HEK293 cells, 2 h at 37° C., read-out: AKT2 IC50: GeoMean IC50
T2 construct: expressed in transfected cells; host or cells: HEK293
T2 sequence (P31751 whole entry): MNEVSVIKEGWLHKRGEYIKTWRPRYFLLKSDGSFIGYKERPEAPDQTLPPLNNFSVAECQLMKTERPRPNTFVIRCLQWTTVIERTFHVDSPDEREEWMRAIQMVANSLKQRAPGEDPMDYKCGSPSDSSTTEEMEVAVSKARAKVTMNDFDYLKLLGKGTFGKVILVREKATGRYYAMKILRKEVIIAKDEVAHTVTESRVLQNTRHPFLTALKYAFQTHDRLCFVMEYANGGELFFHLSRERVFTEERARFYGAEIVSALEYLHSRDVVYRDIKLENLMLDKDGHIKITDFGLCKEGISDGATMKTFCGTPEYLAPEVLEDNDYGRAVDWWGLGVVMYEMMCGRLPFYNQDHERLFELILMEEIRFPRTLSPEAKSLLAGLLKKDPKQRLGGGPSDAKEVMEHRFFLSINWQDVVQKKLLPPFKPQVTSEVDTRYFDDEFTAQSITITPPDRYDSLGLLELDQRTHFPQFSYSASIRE
Protocol: as §1

[1] = system: LAPC4 prostate cancer cells, which express the AKT1 E17K allele; test: Antiproliferative effects in LAPC4 cells (CellTiter Glo, 72 h); type: cell-based; settings: read-out: LAPC4 proliferation IC50: GeoMean IC50
Protocol: Antiproliferative effects in LAPC4 cells. LAPC4 prostate cancer cells (Klein, K. A. et al. Nat Med 1997, 3, 402-408), which express the AKT1 E17K allele, were grown in IMDM media (Hyclone) supplemented with 12% FBS+1% P/S. To assess compound effects on growth, 1,000 cells/well were seeded in 384 well assay plates, incubated with compound dilutions dissolved in DMSO. After 72 h, intracellular ATP content was assessed with CellTiter Glo reagent (Promega) according to the manufacturer's instructions. IC50 values were calculated by fitting luminescence values to a log(inhibitor) vs. response Hill equation.

AKT1 E17K = molecular target: T3, AKT1 E17K (Homo sapiens, UniProt P31749, E17K); test: Live cell target engagement by NanoBRET competitive probe displacement, AKT1 E17K; type: binding; settings: transfected HEK293 cells, 2 h at 37° C., read-out: AKT1 E17K IC50: GeoMean IC50
T3 construct: expressed in transfected cells; host or cells: HEK293
T3 sequence (P31749 whole entry E17K): as the sequence (P31749 whole entry) above, with E17K counted along it
Protocol: as §1

Row | SMILES | IC50 (AKT1 WT) [nM] | IC50 (AKT2) [nM] | IC50 ([1]; Homo sapiens, LAPC4, 72 h) [nM] | IC50 (AKT1 E17K) [nM] | IC50 [1] [nM]
1 | CN(C)c1cc(C(=O)N[C@H]2CCc3cc(-n4c(-c5cccnc5N)nc5ccc(-n6cccn6)nc54)ccc32)cc(C=O)c1O [Example 228, N-[(1S)-5-[2-(2-aminopyridin-3-yl)-5-(pyrazol-1-yl)imidazo[4,5-b]pyridin-3-yl]-2,3-dihydro-1H-inden-1-yl]-3-(dimethylamino)-5-formyl-4-hydroxybenzamide] | 100 to 2000 | ≥ 2000 | 100 to 2000 | 10 to 100 | –
2 | Nc1ncccc1-c1nc2ccc(-c3nccnc3F)nc2n1-c1ccc2c(c1)CC[C@@H]2NC(=O)c1ccc(O)c(C=O)c1 [Example 109, N-[(1S)-5-[2-(2-aminopyridin-3-yl)-5-(3-fluoropyrazin-2-yl)imidazo[4,5-b]pyridin-3-yl]-2,3-dihydro-1H-inden-1-yl]-3-formyl-4-hydroxybenzamide] | 100 to 2000 | 100 to 2000 | 100 to 2000 | 10 to 100 | –
3 | Nc1ncccc1-c1nc2ccc(-n3ccc(Cl)n3)nc2n1-c1ccc2c(c1)CC[C@@H]2NC(=O)c1ccc(O)c(C=O)c1 [Example 96, (S)—N-(5-(2-(2-aminopyridin-3-yl)-5-(3-chloro-1H-pyrazol-1-yl)-3H-imidazo[4,5-b]pyridin-3-yl)-2,3-dihydro-1H-inden-1-yl)-3-formyl-4-hydroxybenzamide] | 100 to 2000 | 100 to 2000 | 100 to 2000 | 10 to 100 | –
4 | Nc1ncccc1-c1nc2ccc(-c3cccc(F)c3)nc2n1-c1ccc2c(c1)CC[C@@H]2NC(=O)c1ccc(O)c(C=O)c1 [Example 26, N-[(1S)-5-[2-(2-aminopyridin-3-yl)-5-(3-fluorophenyl)imidazo[4,5-b]pyridin-3-yl]-2,3-dihydro-1H-inden-1-yl]-3-formyl-4-hydroxybenzamide] | 100 to 2000 | 100 to 2000 | 100 to 2000 | 10 to 100 | –
5 | CN(C)S(=O)(=O)Nc1ccc(C(=O)N[C@H]2CCc3cc(-n4c(-c5cccnc5N)nc5ccc(-n6cccn6)nc54)ccc32)cc1C=O [Example 154, N-[(1S)-5-[2-(2-aminopyridin-3-yl)-5-(pyrazol-1-yl)imidazo[4,5-b]pyridin-3-yl]-2,3-dihydro-1H-inden-1-yl]-4-[(dimethylsulfamoyl)amino]-3-formylbenzamide] | 10 to 100 | 100 to 2000 | 10 to 100 | < 10 | –
6 | Nc1ncccc1-c1nc2ccc(-n3cccn3)nc2n1-c1ccc2c(c1)C(O)C[C@@H]2NC(=O)c1ccc(O)c(C=O)c1 (single isomer, unassigned) [Example 98] | 10 to 100 | 100 to 2000 | 100 to 2000 | 10 to 100 | –
7 | Nc1ncccc1-c1nc2ccc(-c3cccnc3)nc2n1-c1ccc2c(c1)CC[C@@H]2NC(=O)c1ccc(O)c(C=O)c1 [Example 23, N-[(1S)-5-[2-(2-aminopyridin-3-yl)-5-(pyridin-3-yl)imidazo[4,5-b]pyridin-3-yl]-2,3-dihydro-1H-inden-1-yl]-3-formyl-4-hydroxybenzamide] | 10 to 100 | 100 to 2000 | 10 to 100 | 10 to 100 | –
8 | Nc1ncccc1-c1nc2ccc(-c3ccncc3)nc2n1-c1ccc2c(c1)CC[C@@H]2NC(=O)c1ccc(O)c(C=O)c1 [Example 24, N-[(1S)-5-[2-(2-aminopyridin-3-yl)-5-(pyridin-4-yl)imidazo[4,5-b]pyridin-3-yl]-2,3-dihydro-1H-inden-1-yl]-3-formyl-4-hydroxybenzamide] | 10 to 100 | 100 to 2000 | 10 to 100 | 10 to 100 | –
9 | Cc1ccc2nc(-c3cccnc3N)n(-c3ccc4c(c3)CC[C@@H]4NC(=O)c3ccc(O)c(C=O)c3)c2n1 [Example 13, N-[(1S)-5-[2-(2-aminopyridin-3-yl)-5-methylimidazo[4,5-b]pyridin-3-yl]-2,3-dihydro-1H-inden-1-yl]-3-formyl-4-hydroxybenzamide] | 100 to 2000 | ≥ 2000 | 100 to 2000 | 10 to 100 | –
10 | Nc1ncccc1-c1nc2ccc(-n3cccn3)nc2n1-c1ccc2c(c1)CC(F)[C@@H]2NC(=O)c1cc(C=O)c(O)cc1F (single isomer, unassigned) [Example 259, N-((1R,2S*)-5-(2-(2-aminopyridin-3-yl)-5-(1H-pyrazol-1-yl)-3H-imidazo[4,5-b]pyridin-3-yl)-2-fluoro-2,3-dihydro-1H-inden-1-yl)-2-fluoro-5-formyl-4-hydroxybenzamide] | 10 to 100 | 100 to 2000 | – | 10 to 100 | 10 to 100
11 | Nc1ncccc1-c1nc2ccc(-n3cccn3)nc2n1-c1ccc2c(c1)CC(F)[C@@H]2NC(=O)c1cc(C=O)c(O)cc1F (single isomer, unassigned) [Example 258, N-((1R,2R*)-5-(2-(2-aminopyridin-3-yl)-5-(1H-pyrazol-1-yl)-3H-imidazo[4,5-b]pyridin-3-yl)-2-fluoro-2,3-dihydro-1H-inden-1-yl)-2-fluoro-5-formyl-4-hydroxybenzamide] | 10 to 100 | 10 to 100 | 10 to 100 | < 10 | –
12 | COc1cncc(-c2ccc3nc(-c4cccnc4N)n(-c4ccc5c(c4)CC[C@@H]5NC(=O)c4ccc(O)c(C=O)c4)c3n2)n1 [Example 80, N-[(1S)-5-[2-(2-aminopyridin-3-yl)-5-(6-methoxypyrazin-2-yl)imidazo[4,5-b]pyridin-3-yl]-2,3-dihydro-1H-inden-1-yl]-3-formyl-4-hydroxybenzamide] | 10 to 100 | 100 to 2000 | 100 to 2000 | 10 to 100 | –

Next, values leading:

Row | IC50 (AKT1 WT) [nM] | IC50 (AKT2) [nM] | IC50 ([1]; Homo sapiens, LAPC4, 72 h) [nM] | IC50 (AKT1 E17K) [nM] | IC50 [1] [nM] | SMILES
13 | 10 to 100 | 100 to 2000 | 10 to 100 | < 10 | – | Nc1ncccc1-c1nc2ccc(-c3ncco3)nc2n1-c1ccc2c(c1)CC[C@@H]2NC(=O)c1ccc(O)c(C=O)c1 [Example 121, (S)—N-(5-(2-(2-aminopyridin-3-yl)-5-(oxazol-2-yl)-3H-imidazo[4,5-b]pyridin-3-yl)-2,3-dihydro-1H-inden-1-yl)-3-formyl-4-hydroxybenzamide]
14 | 10 to 100 | 100 to 2000 | 100 to 2000 | 10 to 100 | – | Nc1ncccc1-c1nc2ccc(-c3ccn(C4COC4)n3)nc2n1-c1ccc2c(c1)CC[C@@H]2NC(=O)c1ccc(O)c(C=O)c1 [Example 171, N-[(1S)-5-[2-(2-aminopyridin-3-yl)-5-[1-(oxetan-3-yl)pyrazol-3-yl]imidazo[4,5-b]pyridin-3-yl]-2,3-dihydro-1H-inden-1-yl]-3-formyl-4-hydroxybenzamide]
15 | 10 to 100 | 100 to 2000 | 10 to 100 | 10 to 100 | – | Cc1coc(-c2ccc3nc(-c4cccnc4N)n(-c4ccc5c(c4)CC[C@@H]5NC(=O)c4ccc(O)c(C=O)c4)c3n2)n1 [Example 178, N-[(1S)-5-[2-(2-aminopyridin-3-yl)-5-(4-methyl-1,3-oxazol-2-yl)imidazo[4,5-b]pyridin-3-yl]-2,3-dihydro-1H-inden-1-yl]-3-formyl-4-hydroxybenzamide]
16 | < 10 | 10 to 100 | 10 to 100 | < 10 | – | Nc1ncccc1-c1nc2c(Cl)cc(-n3cccn3)nc2n1-c1ccc2c(c1)CC[C@@H]2NC(=O)c1cc(C=O)c(O)c(F)c1F [Example 212, N-[(1S)-5-[2-(2-aminopyridin-3-yl)-7-chloro-5-(pyrazol-1-yl)imidazo[4,5-b]pyridin-3-yl]-2,3-dihydro-1H-inden-1-yl]-2,3-difluoro-5-formyl-4-hydroxybenzamide]
17 | < 10 | 10 to 100 | 100 to 2000 | 10 to 100 | – | COc1cc(F)c(C(=O)N[C@H]2CCc3cc(-n4c(-c5cccnc5N)nc5ccc(-n6cccn6)nc54)ccc32)cc1C=O [Example 236, N-[(1S)-5-[2-(2-aminopyridin-3-yl)-5-(pyrazol-1-yl)imidazo[4,5-b]pyridin-3-yl]-2,3-dihydro-1H-inden-1-yl]-2-fluoro-5-formyl-4-methoxybenzamide]
18 | 10 to 100 | 10 to 100 | 10 to 100 | 10 to 100 | – | Cc1cc(-n2cccn2)nc2c1nc(-c1cccnc1N)n2-c1ccc2c(c1)CC[C@@H]2NC(=O)c1ccc(O)c(C=O)c1 [Example 131, (S)—N-(5-(2-(2-aminopyridin-3-yl)-7-methyl-5-(1H-pyrazol-1-yl)-3H-imidazo[4,5-b]pyridin-3-yl)-2,3-dihydro-1H-inden-1-yl)-3-formyl-4-hydroxybenzamide]
